Like-named read-outs stand apart in the source and are kept apart here.
Columns and labels:
[1] = system: HepMat co-cultures; assay: Co-treatment of HepMat co-cultures with OA & OCA or OA & ELN; format: cell-based, human; settings: 800 μM OA with 1 μM OCA or 30 μM ELN, 3 days
Protocol: A similar effect was observed on proinflammatory parameters.
(§1) Oleic acid (OA) exposure of HepMat-co-cultures and mono-cultures: Day 32 HepMat co-cultures and Day 32 HepMat HC3x HLC, HSC and Mφ mono-cultures were incubated with 800 μM of OA (Sigma-Aldrich) for 7 days (addition on day 0 and day 3). Day 32 HepMat co-cultures were also incubated with a combination 800 μM of OA and 1 μM Obeticholic acid (OCA) (Company) or 800 μM of OA and 30 μM Elafibranor (ELN) (Company) for 3 days (addition on day 0 only). Expression of inflammatory and fibrogenic genes was determined by RT-1PCR. Supernatants were collected for pro-collagen measurement by ELISA on day 3 and day 7. In addition, co-culture were assayed for presence of steatosis by BODIPY® staining on day 3 and day 7 as follows: Gels were transferred to Glass Bottom plates (cellvis) for live-cell imaging, following incubation with BODIPY® 493/503 for lipids (Thermo Fisher Scientific) and Hoechst (Sigma Aldrich). Sample was visualised and scanned on a laser scanning confocal microscope (LSM 880, Zeiss, Germany),
(§2) The supernatant was assayed for human TNF-alpha, ILla1pha, and IL6 by ELISA (Biolegend, CA, USA), according to the manufacturer's instructions. Presence of pro-collagen type I was detected by Pro-collagen Type I C-peptide ELISA kit (Takara Bio Inc). Secreted level of TNF-alpha, IL1alpha, IL6 and pro-collagen 1 were normalised for the cell number.

[2] = phase III; cited from earlier work
[3] = system: HepMat co-cultures; assay: Oleic acid exposure of HepMat co-cultures (BODIPY, RT-qPCR, ELISA); format: cell-based, human
Protocol: (§3) d32 HepMat co-cultures were also exposed to 0.8 mM OA for 3 days (1 dose) and 7 days (2 doses).
as §1, §2

[4] = system: HC3x HLC, HSC and Mφ mono-cultures; assay: Oleic acid exposure of HepMat mono-cultures; format: cell-based, human
Protocol: as §3, §1
The supernatant was assayed for human TNF-alpha, ILla1pha, and IL6 by ELISA (Biolegend, CA, USA), according to the manufacturer's instructions. Presence of pro-collagen type I was detected by Pro-collagen Type I C-peptide ELISA kit (Takara Bio Inc). […]

[5] = system: iETV2-ECs; assay: Oleic acid treatment of iETV2-ECs; format: cell-based, human; settings: OA treatment
Protocol: as §3

[6] = system: PSC-HSCs; assay: TGFβ exposure of HepMat-PSC-HSC cultures (24 h); format: cell-based, human; settings: 25 ng/mL TGFβ
Protocol: Day 12 HSC expressed ACTA2, PDG1FRα, COL1A1, COL3A1, COL5A2 and LOXL2 but low levels of LRAT (important for Vitamin-A metabolism in quiescent HSCs) and the more recently identified non-fibrotic HSC marker genes, RGS5 and IGFBP5 (FIGS. 3B and 3E). Accutase-harvested d12 PSC-HSCs were embedded at 3×10^5 cells/10 μl HepMat hydrogel, and maintained for 32 days in HSC medium. HSCs survived for 32 days in the HepMat hydrogel (Calcein-AM staining; FIG. 3B). […] Consistently, HSCs cultured in HepMat hydrogels stored retinol, as shown by BODIPY® staining and presence of typical blue autofluorescence elicited by UV light, even when cultured with low concentrations of palmitic acid (FIG. 3B). […] Thus, PSC-HSCs can be maintained for at least 32 days in the HepMat hydrogels. Moreover, culture of HSCs in these hydrogels may at least in part induce a less fibrotic HSC phenotype while still allowing TGFβ-mediated activation.
TGFβ exposure of HepMat-PSC-HSC cultures: Day 32 HepMat-PSC-HSC mono-cultures hydrogels were exposed to 25 ng/ml of TGFβ (Peprotech) on day 32. Expression of inflammatory and fibrogenic genes was determined by RT-1PCR. Supernatants were collected for pro-collagen measurement by ELISA.

[7] = system: HepMat co-cultures; assay: TGFβ exposure of HepMat co-cultures (RT-qPCR, ELISA); format: cell-based, human
Protocol: (§4) It was investigated whether HepMat co-cultures could be used to model liver fibrosis/steatosis, by exposing cultures either to TGFβ or oleic acid (OA). d32 HepMat co-cultures were treated with 25 ng/ml of TGFβ for an additional 3 days (single administration) or 7 days (2 administrations). […] In addition, TGFβ induced a 7±0.4-fold higher level of pro-collagen and 17±3.4-fold higher level of IL6 on day 7 of treatment in HepMat co-culture supernatants. Pro-collagen levels were unchanged in HC3x-HLCs and PSC-Mφ mono-cultures and ±3-fold increase in PSC-HSCs following 3 and 7 days of treatment with TGFβ.
(§5) TGFβ exposure of HepMat-co-cultures and mono-cultures: Day 32 HepMat co-cultures and dayy 32 HepMat HC3x HLC, HSC and Mφ mono-cultures were incubated with 25 ng/ml TGFβ for 7 days (addition on day 0 and day 3). Expression of inflammatory and fibrogenic genes was determined by RT-qPCR. Supernatants were collected for pro-collagen measurement by ELISA.
as §2

[8] = system: HC3x-HLCs; assay: TGFβ exposure of HC3x-HLC HepMat mono-cultures; format: cell-based, human
Protocol: as §4, §5, §2

[9] = system: PSC-HSCs; assay: TGFβ exposure of PSC-HSC HepMat mono-cultures (3 and 7 days); format: cell-based, human
Protocol: as §4, §5, §2

[10] = system: PSC-Mφs; assay: TGFβ exposure of PSC-Mφ HepMat mono-cultures; format: cell-based, human; settings: supernatants
Protocol: as §4, §5, §2

[11] = system: iETV2-ECs; format: cell-based, human
[12] = system: PSC-Mφs; assay: LPS exposure of HepMat-PSC-Mφ cultures; format: cell-based, human; settings: 100 ng/ml LPS
Protocol: Mφs were generated from PSCs, using a protocol adapted from van Wilgenburg et al. (2013) PLoS One. 8, e71098 (FIG. 3C). […] Thus, PSC-Mφs could also be functionally maintained for at least 32 days in HepMat hydrogels.
LPS exposure of HepMat-PSC-MEs cultures: Day 32 HepMat-PSC-M[…]s mono-cultures were exposed to 100 ng/ml of LPS (Sigma-Aldrich). Expression of inflammatory genes was determined by RT-qPCR. Supernatants were collected for inflammatory cytokine measurement by ELISA.

[13] = 25 ng/ml TGFβ, d32 HepMat co-cultures

## CSc1ccc(C(=O)/C=C/c2cc(C)c(OC(C)(C)C(=O)O)c(C)c2)cc1 [ELN, elafibranor]
[1]
  COL1A1 transcript levels: inhibited
  IL6 transcripts: significantly reduced
  bodipy staining: significant reduction
  pro-collagen secretion in culture supernatants: no effect
  production of secreted IL6: did not inhibit
[2]
  improvement of liver fibrosis compared to placebo: not significantly improve

## CCCCCCCC/C=C\CCCCCCCC(=O)O [OA, oleic acid]
[3]; 0.8 mM OA, d3
  IL6 expression: 1200 fold
[3]; 0.8 mM OA, d7
  IL6 expression: 1000 fold
[3]; 0.8 mM OA, day 3, persisted until day 7
  lipid accumulation, BODIPY staining: significant lipid accumulation
[3]; 0.8 mM OA, day 7
  induction of COL1A1, COL1A3, COL5A2 as well as LOXL2: even greater induction
[3]; 3 day after administration of OA
  increase in pro-collagen in supernatants: 5±0.5 fold
[3]; 7 day after administration of OA
  increase in pro-collagen in supernatants: 12±1.5 fold
[3]; day 7
  increase in IL6 in supernatants: 90±5 fold
[4]; any of the mono-cultures
  pro-collagen or inflammatory cytokines in supernatants: no significant changes
[4]; mono-cultures, 3 days after OA addition
  induction in COL1A1 and COL3A1 transcripts: ~9 fold
[5]
  survival of iETV2-ECs: did not survive

## TGFβ
[6]; ELISA
  secreted levels of pro-collagen: significantly higher levels
[6]; d32 HepMat HSCs
  LRAT transcript levels: significant decrease
  expression of COL1A1: significant increase
[7]; [13]
  increase in transcripts for COL1A1: 17±3.5 fold
  increase in transcripts for COL3A1: 13±3.4 fold
  increase in transcripts for COL5A2 or LOXL2: but not COL5A2 or LOXL2
[7]; TGFβ exposure for 7 days
  induction of IL1α transcripts: 7±0.49 fold
  induction of IL6 transcripts: 13±4.3 fold
[7]; day 7 of treatment, ELISA
  higher level of IL6 in supernatants: 17±3.4 fold
  higher level of pro-collagen in supernatants: 7±0.4 fold
[8]; 3 days treatment
  induction of COL1A1 transcripts: 9±1.6 fold
[8]; 7 days treatment
  induction of COL1A1 transcripts: 5±0.7 fold
[8]; TGFβ, supernatants
  Pro-collagen levels: unchanged
[9]; 3 and 7 days of treatment with TGFβ
  increase in pro-collagen levels: ~3 fold
[9]; d3
  induction of COL1A1 and COL3A1 transcripts: 4±1.1 fold
[10]
  Pro-collagen levels: unchanged
[11]
  survival of iETV2-ECs: did not survive

## lipopolysaccharide [LPS]
[12]; ELISA, significant for IL6
  secretion of TNFα, IL1α and IL6: increased secretion of all three cytokines
[12]; additional 48 hours, RT-qPCR
  expression of TNFα, IL1α and IL6: significantly induced

— patent publication US20230392121A1, “HYDROGELS FOR CELL CULTURE” (KATHOLIEKE UNIVERSITEIT LEUVEN, priority 2020, published 2023)
